# Assay results published in US20050282743A1, “Molecular interactions in cells” (Arbor Vita Corporation, priority 2001, published 2005).
# Like-named read-outs stand apart in the source and are kept apart here. Ends that are not written are not given here. Peptide text beside a SMILES is read from it. * marks the point of attachment. Biotin = O=C1N[C@H]2[C@H](CS[C@H]2CCCCC(=O)*)N1
# What was measured:
# [1] = biological target: T1, KIAA0807(S) (PDZ Domain 1) (Homo sapiens, UniProt Q6P0Q8); test: G' assay and Kd titration, TABLE 12; type: binding; conditions: for Classification: A450 nm class of biotinylated PL peptide bound, 0 in conc columns = peptide 10 uM, protein 5 ug/ml
# T1 construct: made in house; host or cells: E. coli (DH5alpha, BL21 or JM109)
# T1 sequence (Q6P0Q8 with tags, fused parts or gaps): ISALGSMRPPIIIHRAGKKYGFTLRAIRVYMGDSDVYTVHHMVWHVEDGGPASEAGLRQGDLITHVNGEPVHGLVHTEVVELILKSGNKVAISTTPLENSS
# Experimental: The third column labeled “Peptide Optimal Concentration” in the tables is a number reflective of the binding interaction between the PL protein and PDZ protein. […] The column labeled “Protein Optimal Concentration” refers to the protein concentration used to assay PL interaction (in ug/ml); a ‘0’ is indicative of 5 ug/ml protein concentration; any other value represents the concentration (in ug/ml) used to determine the dissociation constant for a given interaction.
# Finally, the seventh column labeled “Classification” is another measure of the level of binding. In particular, it provides an absorbance value at 450 nm which indicates the amount of PL peptide bound to the PDZ protein. The following numerical values have the following meanings: ‘1’—A450 nm 0-1; ‘2’—A450 nm 1-2; ‘3’—A450 nm 2-3; ‘4’—A450 nm 3-4; ‘5’—A450 nm of 4 more than 2× repeated; ‘0’—A450 nm 0, i.e., not found to interact. Thus, higher numbers indicate stronger interactions.
# For convenience, the assay conditions described in this section are referred to as the “G′ assay” and the “G″ assay,” with the specific conditions described in the preceding section on G assays being referred to as the “G^0 assay.” The “G′ assay” is identical to the “G^0 assay” except at step (2) the peptide concentration is 10 uM instead of 20 uM.
# [2] = biological target: T2, PDZ-domain polypeptide (GST/PDZ fusion protein) (Homo sapiens, UniProt Q5TCQ9); test: Apparent affinity (Kd) by titration of PL peptide in the G assay; type: binding
# T2 construct: made in house; host or cells: E. coli (DH5alpha, BL21 or JM109)
# T2 sequence (Q5TCQ9 1-1481): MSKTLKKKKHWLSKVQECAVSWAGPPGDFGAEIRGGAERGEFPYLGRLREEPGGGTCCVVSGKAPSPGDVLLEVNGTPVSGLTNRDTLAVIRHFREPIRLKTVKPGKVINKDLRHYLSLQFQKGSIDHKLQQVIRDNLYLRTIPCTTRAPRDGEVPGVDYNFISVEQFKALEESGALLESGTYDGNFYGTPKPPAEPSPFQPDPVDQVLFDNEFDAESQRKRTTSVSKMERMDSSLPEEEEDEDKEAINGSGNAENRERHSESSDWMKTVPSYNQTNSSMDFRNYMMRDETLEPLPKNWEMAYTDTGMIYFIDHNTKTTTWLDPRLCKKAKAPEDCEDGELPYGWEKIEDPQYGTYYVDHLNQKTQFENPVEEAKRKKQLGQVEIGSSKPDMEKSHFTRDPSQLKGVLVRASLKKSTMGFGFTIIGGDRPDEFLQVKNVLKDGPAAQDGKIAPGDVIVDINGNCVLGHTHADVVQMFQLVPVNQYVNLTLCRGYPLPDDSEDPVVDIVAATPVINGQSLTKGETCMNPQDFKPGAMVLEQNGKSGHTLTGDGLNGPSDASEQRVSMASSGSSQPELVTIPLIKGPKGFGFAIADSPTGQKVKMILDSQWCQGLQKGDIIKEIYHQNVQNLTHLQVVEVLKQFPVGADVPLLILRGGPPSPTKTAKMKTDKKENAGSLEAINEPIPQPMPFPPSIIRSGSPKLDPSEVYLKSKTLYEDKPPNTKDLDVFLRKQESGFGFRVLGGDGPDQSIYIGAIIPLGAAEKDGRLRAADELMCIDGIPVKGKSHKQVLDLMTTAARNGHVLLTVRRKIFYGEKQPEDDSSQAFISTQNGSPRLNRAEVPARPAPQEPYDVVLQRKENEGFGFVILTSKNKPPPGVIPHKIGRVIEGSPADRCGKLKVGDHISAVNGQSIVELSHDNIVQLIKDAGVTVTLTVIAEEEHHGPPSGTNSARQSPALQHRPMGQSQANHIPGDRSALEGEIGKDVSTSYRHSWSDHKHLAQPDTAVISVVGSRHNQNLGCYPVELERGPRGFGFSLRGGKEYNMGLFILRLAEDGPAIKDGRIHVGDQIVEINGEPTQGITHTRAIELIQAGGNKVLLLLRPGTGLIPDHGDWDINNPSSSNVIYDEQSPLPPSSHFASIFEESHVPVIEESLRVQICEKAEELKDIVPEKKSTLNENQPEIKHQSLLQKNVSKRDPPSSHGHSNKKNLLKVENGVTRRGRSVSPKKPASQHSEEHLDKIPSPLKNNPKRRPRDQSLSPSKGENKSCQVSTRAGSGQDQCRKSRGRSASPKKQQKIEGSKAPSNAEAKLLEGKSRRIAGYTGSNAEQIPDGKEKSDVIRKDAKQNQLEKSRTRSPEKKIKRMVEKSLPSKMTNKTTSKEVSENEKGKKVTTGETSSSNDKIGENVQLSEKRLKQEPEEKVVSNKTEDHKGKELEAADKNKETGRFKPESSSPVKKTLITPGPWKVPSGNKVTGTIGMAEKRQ
# Method in brief: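 A fixed concentration of GST/PDZ fusion protein, 5 ug/ml by default, was mixed in solution with increasing labeled PL peptide (e.g. 0.1 uM-1 mM). Reaction times ranged from 10 minutes to 2 days at 4-37° C. Complexes were separated from free peptide and detected via the label as in the G assay, apparent affinity coming from the saturating concentration.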
Compound,Classification [1],other results
CC[C@H](C)[C@H](NC(=O)[C@H](CO)NC(=O)[C@H](CCC(=O)O)NC(=O)[C@H](Cc1ccc(O)cc1)NC(=O)[C@H](CC(=O)O)NC(=O)[C@H](CC(N)=O)NC(=O)[C@H](CCC(=O)O)NC(=O)[C@H](CCCCN)NC(=O)CCCC[C@@H]1SC[C@@H]2NC(=O)N[C@@H]21)C(=O)N[C@@H](CO)C(=O)N[C@@H](CC(=O)O)C(=O)N[C@@H](CC(C)C)C(=O)N[C@@H](CCC(N)=O)C(=O)N[C@@H](CCC(N)=O)C(=O)NCC(=O)N[C@@H](CCCNC(=N)N)C(=O)N[C@@H](CC(=O)O)C(=O)N[C@H](C(=O)N[C@H](C(=O)N[C@@H](CCCNC(=N)N)C(=O)N[C@@H](CC(C)C)C(=O)O)[C@@H](C)O)[C@@H](C)CC [PAG] (Biotin-KENDYESISDLQQGRDITRL-OH; C-terminus assumed),5 (A450 nm of 4 more than 2× repeated),"Kd ([1]; titration of PL peptide, KIAA0807(S) protein 0.5 ug/ml, read-out: Peptide Optimal Conc (Kd)): 350 nM"
LASKSAEEGKQIPDSLSTDL (Biotin-LASKSAEEGKQIPDSLSTDL) [Dock2],4 (A450 nm 3-4),–
CC[C@H](C)[C@H](NC(=O)[C@H](CC(=O)O)NC(=O)[C@H](CCC(=O)O)NC(=O)[C@H](CCCNC(=N)N)NC(=O)[C@@H](NC(=O)CCCC[C@@H]1SC[C@@H]2NC(=O)N[C@@H]21)[C@@H](C)O)C(=O)N[C@@H](Cc1ccc(O)cc1)C(=O)N[C@H](C(=O)N[C@@H](CC(N)=O)C(=O)N[C@@H](Cc1ccc(O)cc1)C(=O)N1CCC[C@H]1C(=O)N[C@H](C(=O)N[C@@H](Cc1ccccc1)C(=O)N[C@@H](CO)C(=O)N[C@@H](CCCNC(=N)N)C(=O)N[C@@H](CCCNC(=N)N)C(=O)N1CCC[C@H]1C(=O)N[C@@H](CCCCN)C(=O)N[C@H](C(=O)N[C@@H](CCCNC(=N)N)C(=O)N[C@H](C(=O)O)C(C)C)[C@@H](C)O)[C@@H](C)O)C(C)C [DNAM-1] (Biotin-TREDIYVNYPTFSRRPKTRV-OH; C-terminus assumed),–,"Kd ([2]; Peptide Optimal Conc (Kd by titration of the PL peptide), PDZ KIAA1634, PDZ Domain 1): 1000 nM"
CC(C)C[C@H](NC(=O)CNC(=O)[C@@H](NC(=O)[C@H](CO)NC(=O)[C@H](CC(N)=O)NC(=O)[C@H](Cc1ccccc1)NC(=O)CNC(=O)[C@H](C)NC(=O)[C@H](C)NC(=O)[C@H](Cc1ccccc1)NC(=O)[C@@H](NC(=O)CCCC[C@@H]1SC[C@@H]2NC(=O)N[C@@H]21)[C@@H](C)O)[C@@H](C)O)C(=O)N1CCC[C@H]1C(=O)N[C@@H](Cc1c[nH]cn1)C(=O)N[C@@H](CO)C(=O)N[C@H](C(=O)N[C@H](C(=O)N[C@@H](CCCNC(=N)N)C(=O)N[C@H](C(=O)O)C(C)C)[C@@H](C)O)[C@@H](C)O [Neuroligin] (Biotin-TFAAGFNSTGLPHSTTRV-OH; C-terminus assumed),3 (A450 nm 2-3),"Kd ([2]; PDZ KIAA1634, PDZ Domain 1, read-out: Peptide Optimal Conc (Kd by titration of the PL peptide)): 100 nM"
ARHRVTSYTSSSVNVSSNL (Biotin-ARHRVTSYTSSSVNVSSNL) [IL-8RB],1 (A450 nm 0-1),–
CC[C@H](C)[C@H](NC(=O)[C@H](CO)NC(=O)[C@@H](NC(=O)[C@H](Cc1ccccc1)NC(=O)[C@H](CO)NC(=O)CCCC[C@@H]1SC[C@@H]2NC(=O)N[C@@H]21)[C@@H](C)O)C(=O)N[C@@H](CC(C)C)C(=O)N[C@H](C(=O)N[C@@H](CS)C(=O)N[C@@H](Cc1c[nH]cn1)C(=O)N[C@@H](CCC(N)=O)C(=O)N[C@@H](CCCNC(=N)N)C(=O)N[C@@H](CCCNC(=N)N)C(=O)N[C@H](C(=O)N[C@@H](CCC(N)=O)C(=O)N[C@@H](CCCNC(=N)N)C(=O)N[C@@H](CCCCN)C(=O)N[C@@H](CCC(=O)O)C(=O)N[C@H](C(=O)N[C@H](C(=O)N[C@@H](C)C(=O)O)C(C)C)[C@@H](C)O)[C@@H](C)O)[C@@H](C)O [GluR5-2 (rat)],–,"Kd ([2]; PDZ KIAA1634, PDZ Domain 1, titration of the PL peptide, read-out: Peptide Optimal Conc (Kd, dissociation constant)): 150 nM"
CC(C)C[C@H](NC(=O)[C@H](CC(=O)O)NC(=O)[C@H](CO)NC(=O)[C@H](CCC(=O)O)NC(=O)CNC(=O)[C@H](Cc1ccc(O)cc1)NC(=O)[C@H](CC(C)C)NC(=O)[C@H](C)NC(=O)[C@H](CO)NC(=O)[C@H](CO)NC(=O)[C@H](Cc1ccccc1)NC(=O)[C@H](C)NC(=O)[C@H](C)NC(=O)[C@H](Cc1ccc(O)cc1)NC(=O)[C@H](CC(=O)O)NC(=O)[C@H](CC(C)C)NC(=O)[C@H](C)NC(=O)CNC(=O)[C@@H]1CCCN1C(=O)[C@@H](NC(=O)CCCC[C@@H]1SC[C@@H]2NC(=O)N[C@@H]21)C(C)C)C(=O)O [a-actinin 2] (Biotin-VPGALDYAAFSSALYGESDL-OH; C-terminus assumed),–,"Kd ([2]; PDZ KIAA1634, PDZ Domain 5, read-out: Peptide Optimal Conc (non-zero value: Kd by titration of the PL peptide)): 2000 nM"
QATSRNGHSARQHVVADTEL (Biotin-QATSRNGHSARQHVVADTEL) [CD34],3 (A450 nm 2-3),–
CC[C@H](C)[C@H](NC(=O)[C@H](CCC(N)=O)NC(=O)CCCC[C@@H]1SC[C@@H]2NC(=O)N[C@@H]21)C(=O)N[C@@H](CO)C(=O)N1CCC[C@H]1C(=O)NCC(=O)NCC(=O)N[C@@H](CC(C)C)C(=O)N[C@@H](CCC(=O)O)C(=O)N1CCC[C@H]1C(=O)N1CCC[C@H]1C(=O)N[C@@H](CO)C(=O)N[C@@H](CCC(=O)O)C(=O)N[C@@H](CCCCN)C(=O)N[C@@H](Cc1c[nH]cn1)C(=O)N[C@@H](Cc1ccccc1)C(=O)N[C@@H](CCCNC(=N)N)C(=O)N[C@@H](CCC(=O)O)C(=O)N[C@H](C(=O)N[C@@H](CCC(=O)O)C(=O)N[C@H](C(=O)O)C(C)C)[C@@H](C)O [Tax],5 (A450 nm of 4 more than 2× repeated),–
CC(C)C[C@H](NC(=O)[C@H](C)NC(=O)[C@@H](NC(=O)[C@@H](NC(=O)[C@H](Cc1c[nH]cn1)NC(=O)[C@H](CC(C)C)NC(=O)CNC(=O)[C@H](CCC(N)=O)NC(=O)CNC(=O)CNC(=O)[C@H](C)NC(=O)[C@H](C)NC(=O)[C@H](CCCNC(=N)N)NC(=O)[C@H](C)NC(=O)[C@H](CO)NC(=O)[C@H](CC(=O)O)NC(=O)[C@H](CC(=O)O)NC(=O)[C@H](Cc1c[nH]c2ccccc12)NC(=O)[C@H](C)NC(=O)CCCC[C@@H]1SC[C@@H]2NC(=O)N[C@@H]21)C(C)C)[C@@H](C)O)C(=O)O [LPAP] (Biotin-AWDDSARAAGGQGLHVTAL-OH; C-terminus assumed),5 (A450 nm of 4 more than 2× repeated),–
